Format in all cases: functional
The test system of experiment [1] is Escherichia coli. The experiment can be described thus: Antibacterial activity against multidrug-resistant Escherichia coli assessed as bacterial growth inhibition incubated for 24 hrs by […] method. (In general: Agar diffusion results depend on both activity and mobility in agar.)
Experiment [2] relates to Staphylococcus aureus. Put plainly: Antibacterial activity against Staphylococcus aureus clinical isolate assessed as bacterial growth inhibition by disk diffusion method.
Experiment [3] relates to Klebsiella pneumoniae. The experiment can be described thus: Antibacterial activity against Klebsiella pneumoniae clinical isolate assessed as bacterial growth inhibition by disk diffusion method.
The subject of the next experiment is Pseudomonas putida. The experiment can be described thus: Antibacterial activity against Pseudomonas putida clinical isolate assessed as bacterial growth inhibition by disk diffusion method.
The test system of another experiment is Serratia marcescens. The experiment can be described thus: Antibacterial activity against Serratia marcescens clinical isolate assessed as bacterial growth inhibition by disk diffusion method.
Experiment [4] relates to Escherichia coli. Put plainly: Antibacterial activity against Escherichia coli clinical isolate assessed as bacterial growth inhibition by disk diffusion method.
Experiment [5] deals with Staphylococcus aureus. The experiment can be described thus: Antibacterial activity against Staphylococcus aureus clinical isolate assessed as bacterial growth inhibition incubated for 24 hrs by disk diffusion method.
The subject of experiment [6] is Escherichia coli. Put plainly: Antibacterial activity against Escherichia coli clinical isolate assessed as bacterial growth inhibition incubated for 24 hrs by disk diffusion method.
The test system of experiment [7] is Bacillus subtilis. The experiment can be described thus: Antibacterial activity against Bacillus subtilis assessed as bacterial growth inhibition incubated for 24 hrs by spectrophotometry.
Experiment [8] has as its system Escherichia coli. The experiment can be described thus: Antibacterial activity against Escherichia coli assessed as bacterial growth inhibition incubated for 24 hrs by spectrophotometry.
Experiment [9] deals with Staphylococcus aureus. Put plainly: Antibacterial activity against Staphylococcus aureus assessed as bacterial growth inhibition incubated for 24 hrs by spectrophotometry.
Experiment [10] has as its system Pseudomonas aeruginosa. The experiment can be described thus: Antibacterial activity against Pseudomonas aeruginosa assessed as bacterial growth inhibition incubated for 24 hrs by spectrophotometry.
Experiment [11] has as its system Escherichia coli. The experiment can be described thus: Antibacterial activity against Escherichia coli assessed as bacterial growth inhibition by broth microdilution method. (In general: Dilution methods test growth across graded concentrations, often in twofold steps.)
Experiment [12] deals with Klebsiella pneumoniae. The experiment can be described thus: Antibacterial activity against Klebsiella pneumoniae assessed as bacterial growth inhibition by broth microdilution method.
Experiment [13] deals with Staphylococcus aureus. The experiment can be described thus: Antibacterial activity against Staphylococcus aureus assessed as bacterial growth inhibition by broth microdilution method.
Experiment [14] deals with Staphylococcus aureus. Put plainly: Antibacterial activity against Staphylococcus aureus ATCC 43300 assessed as bacterial growth inhibition measured for 5 to 20 mins by broth dilution method. Particulars: time 5-20 min.
The subject of experiment [15] is Pseudomonas aeruginosa. Put plainly: Antibacterial activity against Pseudomonas aeruginosa assessed as bacterial growth inhibition by broth microdilution method.
For experiment [16], the system named is Pseudomonas aeruginosa. Put plainly: Antibacterial activity against Pseudomonas aeruginosa ATCC 10145 assessed as bacterial growth inhibition measured for 5 to 20 mins by broth dilution method. The note with it: time 5-20 min.
The test system of experiment [17] is Bacillus subtilis. The experiment can be described thus: Antibacterial activity against Bacillus subtilis assessed as bacterial growth inhibition by broth microdilution method.
Experiment [18] relates to Staphylococcus aureus. Put plainly: Antibacterial activity against Staphylococcus aureus ATCC 25923 assessed as bacterial growth inhibition by broth microdilution method.
The test system of a further experiment is Streptococcus pyogenes. Put plainly: Antibacterial activity against Streptococcus pyogenes MTCC 442 assessed as bacterial growth inhibition by broth microdilution method.
For experiment [19], the system named is Escherichia coli. The experiment can be described thus: Antibacterial activity against Escherichia coli MTCC 1687 assessed as bacterial growth inhibition by serial dilution method.
In experiment [20] the test system is Staphylococcus epidermidis. Put plainly: Antibacterial activity against Staphylococcus epidermidis assessed as bacterial growth inhibition by serial dilution method.
Experiment [21] concerns Pseudomonas aeruginosa. The experiment can be described thus: Antibacterial activity against Pseudomonas aeruginosa MTCC 1688 assessed as bacterial growth inhibition by broth microdilution method.
In experiment [22] the test system is Bacillus subtilis. The experiment can be described thus: Antibacterial activity against Bacillus subtilis assessed as bacterial growth inhibition by serial dilution method.
Experiment [23] deals with Bacillus subtilis. The experiment can be described thus: Antibacterial activity against Bacillus subtilis ATCC 6633 assessed as bacterial growth inhibition incubated for 18 to 24 hrs by turbidimetry. Particulars: time 18-24 hrs.
Experiment [24] relates to Staphylococcus aureus. The experiment can be described thus: Antibacterial activity against Staphylococcus aureus assessed as bacterial growth inhibition by agar well diffusion method.
In experiment [25] the test system is Bacillus subtilis. The experiment can be described thus: Antibacterial activity against Bacillus subtilis assessed as bacterial growth inhibition incubated for 24 hrs by serial dilution method.
Experiment [26] concerns Staphylococcus aureus. Put plainly: Antibacterial activity against Staphylococcus aureus MTCC 96 assessed as bacterial growth inhibition by broth microdilution method.
The test system of experiment [27] is Bacillus subtilis. The experiment can be described thus: Antibacterial activity against Bacillus subtilis assessed as bacterial growth inhibition by agar well diffusion method.
Experiment [28] concerns Escherichia coli. The experiment can be described thus: Antibacterial activity against Escherichia coli ATCC 25922 assessed as bacterial growth inhibition by broth microdilution method.
The subject of another experiment is Salmonella enterica. Put plainly: Antibacterial activity against Salmonella enterica assessed as bacterial growth inhibition incubated for 24 hrs by serial dilution method.
In experiment [29] the test system is Escherichia coli. The experiment can be described thus: Antibacterial activity against Escherichia coli MTCC 443 assessed as bacterial growth inhibition by broth microdilution method.
Experiment [30] concerns Pseudomonas aeruginosa. Put plainly: Antibacterial activity against Pseudomonas aeruginosa assessed as bacterial growth inhibition.
Experiment [31] concerns Staphylococcus aureus. The experiment can be described thus: Antibacterial activity against Staphylococcus aureus MTCC 737 assessed as bacterial growth inhibition by serial dilution method.
The subject of experiment [32] is Escherichia coli. Put plainly: Antibacterial activity against Escherichia coli assessed as bacterial growth inhibition by serial dilution method.
Experiment [33] relates to Klebsiella pneumoniae. Put plainly: Antibacterial activity against Klebsiella pneumoniae NCDC 138 assessed as bacterial growth inhibition incubated for 24 hrs by serial dilution method.
Experiment [34] deals with Bacillus subtilis. Put plainly: Antibacterial activity against Bacillus subtilis MTCC 441 assessed as bacterial growth inhibition incubated for 24 hrs by serial dilution method.
Experiment [35] has as its system Pseudomonas aeruginosa. Put plainly: Antibacterial activity against Pseudomonas aeruginosa assessed as bacterial growth inhibition by broth dilution method.
Experiment [36] has as its system Klebsiella pneumoniae. The experiment can be described thus: Antibacterial activity against Klebsiella pneumoniae assessed as bacterial growth inhibition by broth dilution method.
Experiment [37] has as its system Staphylococcus aureus. Put plainly: Antibacterial activity against methicillin-resistant Staphylococcus aureus ATCC 43300 infected in neutropenic mouse model of thigh infection assessed as reduction in bacterial load at 20 mg/kg, iv measured after 24 hrs by colony counting method.

As usually defined, the MIC is the least concentration at which growth counts as inhibited.

Values after ≈ are worked out from the molar mass of the structure shown.

On to `Clc1cccc(Cn2cc(COc3ccc(-c4nc5ccccc5s4)cc3)nn2)c1`, for which, in the experiment with Escherichia coli [1], the MIC stood at 8.02 µg/mL (≈ 18.5 µM).
In the case of `Cc1ccc2c(c1)c(=O)c1ccccc1n2Cc1cn(CC(=O)Nc2ccccc2C)nn1`, the minimum inhibitory concentration (MIC) in the experiment with Staphylococcus aureus [2], in the experiment with Klebsiella pneumoniae [3], with Pseudomonas putida, in the experiment with Serratia marcescens and in the experiment on Escherichia coli [4] was 12.3 µg/mL (≈ 28.1 µM) throughout.
Take `Cc1ccccc1-n1cc(Cn2c3ccccc3c(=O)c3ccccc32)nn1`: the MIC in the experiment with Staphylococcus aureus [5] and with Escherichia coli [6] was 10.1 µg/mL (≈ 27.6 µM) throughout.
As to `Cc1c(C(=O)/C=C/c2ccc(Cl)cc2)nnn1-c1ccc(Cl)c(Cl)c1`, the MIC in the experiment on Bacillus subtilis [7], with Escherichia coli [8], in the experiment on Staphylococcus aureus [9] and with Pseudomonas aeruginosa [10] was 1.3 µg/mL (≈ 3.31 µM) throughout.
`CC1(C)S[C@@H]2[C@H](NC(=O)[C@H](N)c3ccc(O)cc3)C(=O)N2[C@H]1C(=O)O` [AMOXICILLIN]: the MIC in the experiment on Escherichia coli [11], in the experiment with Klebsiella pneumoniae [12] and in the experiment with Staphylococcus aureus [13] was 25 µg/mL (≈ 68.4 µM) in each case.
In the case of `CC1(C)S[C@@H]2[C@H](NC(=O)[C@H](N)c3ccccc3)C(=O)N2[C@H]1C(=O)O` [AMPICILLIN], the minimal inhibitory concentration (MIC) is 4 µg/mL (≈ 11.4 µM) in the experiment with Escherichia coli [11]; 2.5 µg/mL (≈ 7.15 µM) with Staphylococcus aureus [14]; 4 µg/mL (≈ 11.4 µM) in the experiment on Staphylococcus aureus [13]; 1 µg/mL (≈ 2.86 µM) in the experiment with Pseudomonas aeruginosa [15]; 5 µg/mL (≈ 14.3 µM) in the experiment with Pseudomonas aeruginosa [16]; 4 µg/mL (≈ 11.4 µM) in the experiment with Bacillus subtilis [17].
Turning to `O=C(O)c1cn(C2CC2)c2cc(N3CCNCC3)c(F)cc2c1=O` [CIPROFLOXACIN], the MIC with Staphylococcus aureus [18] was 12 µg/mL (≈ 36.2 µM); with Streptococcus pyogenes, 24.9 µg/mL (≈ 75.1 µM); in the experiment on Escherichia coli [19], 12.5 µg/mL (≈ 37.7 µM); in experiment [20], 25 µg/mL (≈ 75.4 µM); in the experiment with Pseudomonas aeruginosa [21], 24.9 µg/mL (≈ 75.1 µM); in the experiment on Bacillus subtilis [22], 25 µg/mL (≈ 75.4 µM). Further, the MIC with Bacillus subtilis [23] stood at 0.125 µg/mL (≈ 0.377 µM); with Staphylococcus aureus [24], 0.5 µg/mL (≈ 1.51 µM); in the experiment on Bacillus subtilis [25], 6.25 µg/mL (≈ 18.9 µM); in the experiment with Staphylococcus aureus [26], 24.9 µg/mL (≈ 75.1 µM); in the experiment with Bacillus subtilis [27], 0.5 µg/mL (≈ 1.51 µM); in the experiment on Escherichia coli [28], 11 µg/mL (≈ 33.2 µM). The MIC in the experiment with Salmonella enterica worked out at 6.25 µg/mL (≈ 18.9 µM); with Escherichia coli [29], 24.9 µg/mL (≈ 75.1 µM); with Pseudomonas aeruginosa [30] it was 1.56 µg/mL (≈ 4.71 µM); in the experiment with Staphylococcus aureus [31], 12.5 µg/mL (≈ 37.7 µM); in the experiment on Escherichia coli [32], 25 µg/mL (≈ 75.4 µM); in the experiment on Klebsiella pneumoniae [33], 6.25 µg/mL (≈ 18.9 µM). For the same compound, in the experiment with Bacillus subtilis [34], the MIC is 6.25 µg/mL (≈ 18.9 µM).
On to `C[C@H]1COc2c(N3CCN(C)CC3)c(F)cc3c(=O)c(C(=O)O)cn1c23` [LEVOFLOXACIN ANHYDROUS], for which the MIC with Bacillus subtilis [7], in the experiment on Escherichia coli [8], in the experiment with Staphylococcus aureus [9] and in the experiment on Pseudomonas aeruginosa [10] was 33.6 µg/mL (≈ 93 µM) throughout.
Take `CC1(C)S[C@@H]2[C@H](NC(=O)Cc3ccccc3)C(=O)N2[C@H]1C(=O)O` [PENICILLIN G]: the minimum inhibitory concentration (MIC) in the experiment with Pseudomonas aeruginosa [35] is 18.8 µg/mL (≈ 56.1 µM); in the experiment on Klebsiella pneumoniae [36] it was 9.37 µg/mL (≈ 28 µM).
With `C=C[C@]1(C)C[C@@H](OC(=O)CSCCN(CC)CC)[C@]2(C)[C@H](C)CC[C@]3(CCC(=O)[C@H]32)[C@@H](C)[C@@H]1O` [TIAMULIN], in the experiment on Staphylococcus aureus [37], the Activity was -0.57 log10CFU/ml.

These data come from ChEMBL document CHEMBL5344406, “1,2,3-Triazole-containing hybrids with potential antibacterial activity against ESKAPE pathogens” (2022).
